According to patent publication US6365379B1, “Zinc finger peptide cleavage of nucleic acids” (ISIS Pharmaceuticals, Inc., priority 1998, dated 2002):

Assays:
Type in all cases: biochemical
[1] = tested on: 12079 (2′-OMe) single stranded oligonucleotide, SEQ ID 3; experiment: Initial rate of cleavage of single stranded oligonucleotide by the finger peptide; parameters: unit not given here; conditions: substrate 12079 (2′-OMe); 50 nM wild-type peptide, 500 nM oligonucleotide
Protocol: (§1) FIG. 1A depicts the Kinetics of RNA Cleavage by the Finger Peptide of Seq. I.D. No. 1. Multiple turnover kinetics are shown for RNA cleavage by the wild-type peptide (open box) and wild-type peptide coordinated with zinc (open triangle). […] I.D. No. 1. Multiple turnover kinetics were performed in 100 μL containing 50 nM peptide, 100 to 1000 nM or a 20—mer RNA oligonucleotide denominated 9713 and having Seq. I.D. No. 7, as […] 32P labeled RNA in 20 mM Sodium Phosphate, pH 7.0, 100 mM KCl, 1 mM EDTA, and 0.1% NP40. Digestion reaction were incubated at 37° C. and quenched at specific time points in 6 M urea. Digestion products were analyzed by denaturing polyacrylamide gel electrophoresis. […] Single turnover kinetics were performed as described above with the exception that peptide ranging in concentration from 50 to 500 nM was added to 50 nM of the 9713 RNA, Seq. I.D. No. 7.
(§2) Initial rates of cleavage of several single stranded oligonucleotides were determined as described in connection with FIG. 1 with the exception that 50 nM wild-type peptide and 500 nM oligonucleotide were used. Arrows indicate the position of the peptide induced cleavage. The relative intensity of the cleavage product for each respective cleavage sites is indicated by the length of the arrows.

[2] = tested on: 12147 (RNA) single stranded oligonucleotide, SEQ ID 6; experiment: as above; parameters: unit not given here; conditions: substrate 12147 (RNA); 50 nM wild-type peptide, 500 nM oligonucleotide
Protocol: as §1, §2

[3] = tested on: 2755 (RNA) single stranded oligonucleotide, SEQ ID 5; experiment: as above; parameters: unit not given here; conditions: substrate 2755 (RNA); 50 nM wild-type peptide, 500 nM oligonucleotide
Protocol: as §1, §2

[4] = tested on: 3058 (RNA) single stranded oligonucleotide, SEQ ID 4; experiment: as above; parameters: unit not given here; conditions: substrate 3058 (RNA); 50 nM wild-type peptide, 500 nM oligonucleotide
Protocol: as §1, §2

[5] = tested on: 4701 (DNA) single stranded oligonucleotide, SEQ ID 2; experiment: as above; parameters: unit not given here; conditions: substrate 4701 (DNA); 50 nM wild-type peptide, 500 nM oligonucleotide
Protocol: as §1, §2

[6] = tested on: 9713 (RNA) 20-mer RNA oligonucleotide, Seq. I.D. No. 7; experiment: Initial rate of cleavage of single stranded oligonucleotide by the peptides; parameters: unit not given here
Protocol: as §1
Initial rates of cleavage of several single stranded oligonucleotides were determined as described in connection with FIG. 1 with the exception that 50 nM wild-type peptide and 500 nM oligonucleotide were used. […]
I.D. No. 1. […] Reactions were quenched at 30 min. and digestion products analyzed by denaturing polyacrylamide gel electrophoresis.
Initial rates were determined as described in connection with FIG. 2. Peptide structure was determined by SDS PAGE and LC-MS.

[7] = tested on: 20-mer RNA oligonucleotide 9713, Seq. I.D. No. 7; experiment: Multiple turnover kinetics of RNA cleavage, Lineweaver-Burk analysis; conditions: zinc-free form of the finger peptide
Protocol: as §1

single stranded RNA = experiment: RNA cleavage (ribonuclease) activity of the peptides
Protocol: as §1
(§3) I.D. No. 1. Digestion reactions were performed as described in FIG. 1 in the presence of either Mg2+ (solid) or Mn2+ (hashed). Reactions were quenched at 30 min. and digestion products analyzed by denaturing polyacrylamide gel electrophoresis.

RNA [8] = experiment: pH dependence of RNA cleavage; conditions: bell shaped pH profile, pH 4 to 9
Protocol: I.D. No. 1. Initial rates were determined as described in connection with FIG. 2. For each rate determination the pH was adjusted using either 20 mM sodium acetate, pH 4, 20 mM sodium phosphate, pH 5 to pH 8 or 20 mM sodium carbonate, pH 9.

RNA [9] = experiment: Effect of divalent cations on RNA cleavage activity; conditions: Mg2+ and Mn2+
Protocol: as §3

[10] = tested on: Single strand DNA, double strand RNA and DNA, and 2′-methoxy modified sequences; experiment: Cleavage selectivity against other nucleic acids
Protocol: as §2

[11] = tested on: RNA substrate 9713, Seq. I.D. No. 7; experiment: Cleavage product analysis of RNA substrate
From the text: FIG. 3A presents a schematic cleavage product analysis of RNA aubstrate. RNA substrate 9713, Seq. I.D. No. 7, was internally labeled at the penultimate 3′ phosphate using (^32P) cytidine bisphosphate and T4 RNA ligase. The 3′ terminal phosphate was removed using calf intestinal phosphatase and the RNA digested with the wild type peptide as described in the schematic of FIG. 3A. The digestion reactions were divided into equal aliquots and one aliquot subjected to an additional dephosphorylation. The digested products were analyzed by denaturing polyacrylamide gel electrophoresis.

## HOOC-KTYQCQYCEY RSADSSNLKTHIKTKHSKEK-NH2 [Wild type]
[1]
  V0: 0
[2]
  V0: 1200
[3]
  V0: 422
[4]
  V0: 153
[5]
  V0: 0
[6]; substrate 9713 (RNA), 50 nM wild-type peptide, 500 nM oligonucleotide
  V0: 6100
[6]; substrate 9713 RNA, wild type and mutant peptides
  V0 (9713): 6000 ± 130
[7]
  Kcat: 0.96 s⁻¹
  Km: 0.105 µM
  V0: 6 nmol/L/min
Single stranded RNA
  cleavage site specificity within single stranded RNA: preferentially cleave 5′-pyr-A-3′
Single stranded RNA; fold faster
  cleavage rate of RNA sequences containing 5′-pyr-A-3′ relative to those without: 10-30 fold
Single stranded RNA; peptide coordinated with zinc
  ribonuclease activity on coordination of the peptide with zinc: complete loss of ribonuclease activity
RNA [8]
  pH for RNA cleavage: 7.0
RNA [9]
  requirement of divalent cations for catalysis: not to be required for catalysis
[10]; listed as SEQ ID No. 1
  hydrolysis of non single strand RNA substrates: not hydrolyzed
[10]; listed as the peptide
  hydrolysis of non single strand RNA substrates: not degraded
[11]; listed as SEQ ID No. 1
  termini of RNA cleavage products: 3′-phosphate and 5′-hydroxyl
[11]; listed as wild type peptide
  termini of RNA cleavage products: 3′-phosphate and 5′-hydroxyl termini
